The text below walks through data of BindingDB's records for patent US11168088 (2021).

As a reminder, the IC50 is the concentration needed to halve the response being measured. Low values mean greater potency in that assay, high ones weaker potency in that assay.

Chain of Cyclin-dependent kinase 6/G1/S-specific cyclin-D1 (P24385 whole entry): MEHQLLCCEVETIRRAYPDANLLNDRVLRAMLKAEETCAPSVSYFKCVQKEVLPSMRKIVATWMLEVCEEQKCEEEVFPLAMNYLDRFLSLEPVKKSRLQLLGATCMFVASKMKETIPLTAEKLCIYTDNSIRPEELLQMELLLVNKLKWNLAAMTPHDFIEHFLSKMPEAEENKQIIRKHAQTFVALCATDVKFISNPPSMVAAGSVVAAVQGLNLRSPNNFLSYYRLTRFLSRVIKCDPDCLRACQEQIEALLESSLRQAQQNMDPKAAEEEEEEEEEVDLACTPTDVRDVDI
Chain of Cyclin-dependent kinase 6/G1/S-specific cyclin-D1 (Q00534 whole entry): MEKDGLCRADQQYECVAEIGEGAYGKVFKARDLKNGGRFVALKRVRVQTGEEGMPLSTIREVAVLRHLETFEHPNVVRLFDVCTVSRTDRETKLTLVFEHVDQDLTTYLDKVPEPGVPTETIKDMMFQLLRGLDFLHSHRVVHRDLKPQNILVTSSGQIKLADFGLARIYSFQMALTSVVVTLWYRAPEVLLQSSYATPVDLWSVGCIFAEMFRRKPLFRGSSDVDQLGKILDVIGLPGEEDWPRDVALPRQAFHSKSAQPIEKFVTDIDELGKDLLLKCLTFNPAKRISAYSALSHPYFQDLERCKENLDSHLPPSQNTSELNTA

For the first test, the target named is Cyclin-dependent kinase 2 (Homo sapiens, UniProt P24941).
The compound `CCN1CCN(Cc2ccc(Nc3ncc4c(n3)-c3c(nn(CC)c3C(C)C)CC4)nc2)CC1` [US11168088, Compound P-2] showed an IC50 of 896 nM.

Consider `CCc1nc2c(n1C(C)C)-c1nc(Nc3ccc(CN4CCN(CC)CC4)cn3)ncc1C2` [US11168088, Compound P-5], for which the midpoint of inhibition, the IC50, lay at 3000 nM.

The compound `CC(C)n1ncc2c1-c1nc(Nc3ccc(N4CCNCC4)cn3)ncc1CC2` [US11168088, Compound P-25] had an IC50 of 8520 nM.

With `CCN1CCN(c2ccc(Nc3ncc4c(n3)-c3c(cnn3C(C)C)CC4)nc2)CC1` [US11168088, Compound P-12], the IC50 worked out at 7980 nM.

`Cc1c2c(nn1C)CCc1cnc(Nc3ccc(CN4CCN(C)CC4)cn3)nc1-2` [US11168088, Compound D1] displayed an IC50 of 23 nM. This IC50 is about 350-fold lower than that of the compound before.

A further test concerns the target Cyclin-dependent kinase 6/G1/S-specific cyclin-D1 (Homo sapiens, UniProt Q00534).
As to `CC(C)c1nn(C)c2c1-c1nc(Nc3ccc(N4CCNCC4)cn3)ncc1C2` [US11168088, Compound P-16], the IC50 was determined as 53 nM. That is a double-digit nanomolar value.
